How the values were obtained:
[1] = tested on: Mycosphaerella fijiensis (black sigatoka); experiment: Black sigatoka open field trial in banana, one application (Example 8a); format: in vivo
Procedure: To test for fungicidal control of Mycosphaerella fijiensis the trial was realized in open field. […] Each of the above treatments was applied once when plants were showing a disease infection of 5%. The treatments composed of 4 replicates. The experimental design was a randomized complete block design. Data was analyzed using an ANOVA at the 95% confidence interval.
The level of infection was determined based on the weighted average of infection (PPI) using the Stover scale modified by Gaulh on 5 plants per plot.

[2] = tested on: Mycosphaerella fijiensis (black sigatoka); experiment: Black sigatoka open field trial in banana, 12 applications, leaves per plant (Example 8b); format: in vivo; conditions: folpet 850 g a.i./ha
Text: To test fungicidal control of Mycosphaerella fijiensis, the trial was realized in open field. […] All treatments were applied in a water solution: no mineral oil added.
Experimental unit consisted of 9 banana plants surrounded by Musa textilis, a variety tolerant to Black Sigatoka, used as border plants. The trial followed a complete randomized design, each treatment was replicated three times.
Applications were done every 6 days. All treatments had 12 applications.
The total leaves per plant was evaluated. A high number of leaves at harvest translates to more capability keep the fruit in post-harvest.
Treatment response to black Sigatoka was evaluated using the Stover scale modified by Gauhl.
The statistical analysis was done with INFOSTAT program, using a multiple comparison test (LSD) for every parameter.

With `O=C1c2ccccc2C(=O)N1SC(Cl)(Cl)Cl` [folpet] the “efficacy relative to the mancozeb reference product (in words)” value ([1]; dose of 750 g a.i./ha) was “comparable to the one provided by the reference product based on mancozeb”, the “control of black sigatoka disease (in words)” value ([1]; low doses of 500 and 625 g a.i./ha) was “good control” and the “number of leaves per plant in comparison to the untreated and the mancozeb standard (in words)” value [2] was “higher number of leaves per plant”.

Reference: patent US20250287950A1, “FUNGICIDAL USE” (Adama Makhteshim Ltd., priority 2021, published 2025)
